System: lung cancer cell line NCI-H460
Assay: inhibition of cell proliferation
Type: cell-based
Settings: Homo sapiens
Protocol: In order to evaluate the potential of HA nanocapsules encapsulating cytostatic docetaxel molecule to inhibit cell proliferation of lung cancer cell line NCI-H460, HA nanocapsules were prepared using hexadecyltrimethylammonium bromide (1.8 mg) according to the procedure described in Example 6. The results in FIG. 7 show the greatest ability to inhibit the proliferation of nanocapsules encapsulating docetaxel compared to the free molecule when systems are brought into contact for 2 to 48 h with the cancer cells. Moreover, one can see the safety of the systems without docetaxel. IC50 values, the concentration which produces 50% mortality of the population, was calculated using Graph Pad Prism 2.1 (Graph Pad Software).
In order to evaluate the potential of Pasn nanocapsules encapsulating docetaxel to inhibit cell proliferation of lung cancer cell line NCI-H460, PAsn nanocapsules were prepared using hexadecyltrimethylammonium bromide (1.8 mg) according to the procedure described in Example 12. The results in FIG. 11 show the greatest ability to inhibit the proliferation of nanocapsules encapsulating docetaxel compared to the free molecule when systems are brought into contact for 2 to 48 h with the cancer cells. Moreover, one can see the safety of the systems without docetaxel. IC50 values were calculated using Graph Pad Prism 2.1 (Graph Pad Software).

IC50 (NCI-H460, in contact with the cells for 2 h): 0.105 µM | IC50 (NCI-H460, in contact with the cells for 48 h): 0.036 µM
SMILES: CC(=O)O[C@@]12CO[C@@H]1C[C@H](O)[C@@]1(C)C(=O)[C@H](O)C3=C(C)[C@@H](OC(=O)[C@H](O)[C@@H](NC(=O)OC(C)(C)C)c4ccccc4)C[C@@](O)([C@@H](OC(=O)c4ccccc4)[C@H]21)C3(C)C [docetaxel]
